Results: patent US8680111B2 (Pfizer Inc., priority 2012, dated 2014)

Tests used:
[1] = target: T1, L1196M EML4-ALK (NIH-3T3 EML4-ALK v1 L1196M cells) (Homo sapiens, UniProt Q9UM73, L1196M); assay: Cellular phospho-ALK (Tyr1604) ELISA assay for L1196M EML4-ALK; type: cell-based; settings: NIH-3T3 EML4-ALK v1 L1196M cells, 1 hour, phospho-ALK (Tyr1604); read-out: ELISA assay for L1196M EML4-ALK (IC50)
T1 construct: expressed in transfected cells; the other entry of the earlier key: EML4 (Q9HC35, Echinoderm microtubule-associated protein-like 4)

[2] = target: T2, WT EML4-ALK (NIH-3T3 EML4-ALK wt v1 cells) (Homo sapiens, UniProt Q9UM73); assay: Cellular phospho-ALK (Tyr1604) ELISA assay for WT EML4-ALK; type: cell-based; settings: 1 hour, read-out: ELISA assay for WT EML4-ALK (IC50)
T2 construct: expressed in transfected cells; the other entry of the earlier key: EML4 (Q9HC35, Echinoderm microtubule-associated protein-like 4)
Experimental: Cellular Phospho-ALK (Tyr1604) ELISA Assay for EML4-ALK:
The cells were maintained at 37° C. in a 5% CO2 incubator in DMEM (Invitrogen, Carlsbad, Calif.) medium supplemented with 1% L-glutamine, 1% penicillin and streptomycin, 1 ug/ml puromycin and 10% new born calf serum (NCS) in T-75 flasks.
Cells were washed with PBS and re-suspended in DMEM medium supplemented with 0.5% NCS and 1% pen/strep and seeded into 96-well plates at density of 20,000 cells/well/100 μl and incubated in the incubator at 37° C. and 5% CO2. After 20 hours of incubation, 100 μl of assay media (DMEM) in presence of designated PF-compounds concentrations or controls (DMSO) were added into plates and incubated for 1 hour in the incubator. Media was then removed and lysis buffer, containing phosphatase inhibitors and phenylmethanesulfonyl fluoride (PMSF), was added to wells and shaken at 4° C. for 30 minutes to generate protein lysates.
A phospho-ALK (Tyr1604) rabbit antibody was coated onto the 96-well microplates. 50 μl of cell lysates were added to the antibody coated plate and incubated at room temperature for 2 hours. Following extensive washing with 0.1% Tween 20 in PBS to remove unbound materials, ALK mouse mAb was added to detect captured phospho-ALK (Tyr1604) and phospho-ALK fusion proteins. Anti-mouse IgG, HRP-linked antibody was then used to recognize the bound detection antibody. Finally, the chemiluminescent reagent was added and incubated for 10 minutes for signal development. The assay plates were read in the Envision plate reader in the luminescent mode. IC50 values were calculated by a concentration-response curve fitting using a four-parameter analytic method.

[3] = target: T3, human recombinant wild-type ALK kinase domain (amino acids 1093-1411) (Homo sapiens, UniProt Q9UM73); assay: Wild-type ALK enzyme assay (microfluidic mobility shift); type: biochemical; settings: ATP 60 μM, competitive inhibition fit, read-out: WT ALK enzyme assay (Ki)
T3 construct: ALK kinase domain (amino acids 1093-1411); made in house
Experimental: The reactions were incubated for 1 h at room temperature, stopped by the addition of 0.1 M EDTA, pH 8, and the extent of reactions (˜15-20% conversion with no inhibitor) was determined after electrophoretic separation of the fluorescently labeled peptide substrate and phosphorylated product on an LabChip EZ Reader II (Caliper Life Sciences, Hopkinton, Mass.).

[4] = target: T4, human recombinant L1196M ALK kinase domain (amino acids 1093-1411) (Homo sapiens, UniProt Q9UM73, L1196M); assay: L1196M mutant ALK enzyme assay (microfluidic mobility shift); type: biochemical; settings: ATP 60 μM, 0.5 nM enzyme, competitive inhibition fit; read-out: L1196M ALK enzyme assay (Ki)
T4 construct: ALK kinase domain (amino acids 1093-1411); made in house

Row | IC50 [1] [nM] | IC50 [2] [nM] | Ki [3] [nM] | Ki [4] [nM] | Molecule
1 | > 10000 | 2110 | 146 | 821 | 7-amino-3-tert-butyl-1,10,16-trimethyl-16,17-dihydro-1H-8,4-(metheno)-pyrazolo[4,3-g]pyrido[2,3-l][1,4,10]oxadiazacyclotetradecin-15(10H)-one [Example 120]
2 | 873 | 56.2 | 2.1 | 7.4 | 7-amino-12-fluoro-3-methoxy-1,16,17-trimethyl-16,17-dihydro-1H-8,4-(azeno)pyrazolo[4,3-h][2,5,11]benzoxadiazacyclotetradecin-15(10H)-one [Example 124]
3 | 49.1 | 2.3 | 0.11 | 0.49 | 7-amino-12-fluoro-3-methoxy-1,16,17-trimethyl-16,17-dihydro-1H-8,4-(azeno)pyrazolo[4,3-h][2,5,11]benzoxadiazacyclotetradecin-15(10H)-one [Example 125]
4 | 169 | 10.4 | 0.35 | 1.9 | 12-fluoro-1,14-dimethyl-1,4,5,6,7,8-hexahydro-14H-16,20-(metheno)-pyrazolo[4,3-g][1,14,11]benzodioxazacycloheptadecin-17-amine [Example 95]
5 | 9.29 | 0.35 | 0.2 | 1.06 | CCN1Cc2c(c(C)nn2C)-c2cnc(N)c(c2)OC(C)c2cc(F)ccc2C1=O (single isomer, unassigned) [Example 9, 7-amino-16-ethyl-12-fluoro-1,3,10-trimethyl-16,17-dihydro-1H-8,4-(metheno)pyrazolo[4,3-h][2,5,11]benzoxadiazacyclotetradecin-15(10H)-one]
6 | 27.7 | 1.21 | < 0.2 | 1.1 | Cc1nn(C)c2c1-c1cnc(N)c(c1)OC(C)c1cc(F)ccc1C(=O)N(C1CC1)C2 (single isomer, unassigned) [Example 11, 7-amino-16-cyclopropyl-12-fluoro-1,3,10-trimethyl-16,17-dihydro-1H-8,4-(metheno)pyrazolo[4,3-h][2,5,11]benzoxadiazacyclotetradecin-15(10H)-one]
7 | 700 | 34.9 | 10 | 29 | Cc1nn(C)c2c1-c1cnc(N)c(c1)OC(C)c1cc(F)ccc1C(=O)N(C1CC1)C2 (single isomer, unassigned) [Example 12, 7-amino-16-cyclopropyl-12-fluoro-1,3,10-trimethyl-16,17-dihydro-1H-8,4-(metheno)pyrazolo[4,3-h][2,5,11]benzoxadiazacyclotetradecin-15(10H)-one]
8 | 110 | 4.89 | < 0.2 | 0.9 | COc1c2c(nn1C)CN(C)C(=O)c1ccc(F)cc1C(C)Oc1cc-2cnc1N (single isomer, unassigned) [Example 19, 7-amino-12-fluoro-3-methoxy-2,10,16-trimethyl-16,17-dihydro-2H-8,4-(metheno)pyrazolo[4,3-h][2,5,11]benzoxadiazacyclotetradecin-15(10H)-one]
9 | 10.1 | 0.77 | < 0.2 | 0.29 | CCC1Oc2cc(cnc2N)-c2c(OC)nn(C)c2CN(C)C(=O)c2ccc(F)cc21 (single isomer, unassigned) [Example 23, 7-amino-10-ethyl-12-fluoro-3-methoxy-1,16-dimethyl-16,17-dihydro-1H-8,4-(metheno)pyrazolo[4,3-h][2,5,11]benzoxadiazacyclotetradecin-15(10H)-one]
10 | 21.9 | 1.35 | < 0.2 | 0.56 | COc1nn(C)c2c1-c1cnc(N)c(c1)OC(C1CC1)c1cc(F)ccc1C(=O)N(C)C2 (single isomer, unassigned) [Example 25, 7-amino-10-cyclopropyl-12-fluoro-3-methoxy-1,16-dimethyl-16,17-dihydro-1H-8,4-(metheno)pyrazolo[4,3-h][2,5,11]benzoxadiazacyclotetradecin-15(10H)-one]
11 | 511 | 50.5 | 3.3 | 15 | COc1nn(C)c2c1-c1cnc(N)c(c1)OC(C1CC1)c1cc(F)ccc1C(=O)N(C)C2 (single isomer, unassigned) [Example 26, 7-amino-10-cyclopropyl-12-fluoro-3-methoxy-1,16-dimethyl-16,17-dihydro-1H-8,4-(metheno)pyrazolo[4,3-h][2,5,11]benzoxadiazacyclotetradecin-15(10H)-one]
12 | 67.2 | 2.64 | < 0.2 | 0.67 | COc1nccc2c1-c1cnc(N)c(n1)OC(C)c1cc(F)ccc1C(=O)N(C)C2 (single isomer, unassigned) [Example 30, 8-amino-13-fluoro-4-methoxy-11,17-dimethyl-17,18-dihydro-9,5-(azeno)pyrido[3,4-h][2,5,11]benzoxadiazacyclotetradecin-16(11H)-one]
13 | 660 | 53.2 | 5.96 | 15.8 | COc1nccc2c1-c1cnc(N)c(n1)OC(C)c1cc(F)ccc1C(=O)N(C)C2 (single isomer, unassigned) [Example 31, 8-amino-13-fluoro-4-methoxy-11,17-dimethyl-17,18-dihydro-9,5-(azeno)pyrido[3,4-h][2,5,11]benzoxadiazacyclotetradecin-16(11H)-one]
14 | 5.36 | 0.841 | < 0.2 | < 0.1 | CC1Oc2nc(cnc2N)-c2c(nn(C)c2C#N)CN(C)C(=O)c2ccc(F)cc21 (single isomer, unassigned) [Example 32, 7-amino-12-fluoro-2,10,16-trimethyl-15-oxo-10,15,16,17-tetrahydro-2H-8,4-(azeno)pyrazolo[4,3-h][2,5,11]benzoxadiazacyclotetradecine-3-carbonitrile]
15 | 296 | 4.78 | 1.2 | 10.2 | CC1Oc2cc(cnc2N)-c2c(nn(C)c2C#N)CN(C)C(=O)c2c(F)cccc21 (single isomer, unassigned) [Example 52, 7-amino-14-fluoro-2,10,16-trimethyl-15-oxo-10,15,16,17-tetrahydro-2H-8,4-(metheno)pyrazolo[4,3-h][2,5,11]benzoxadiazacyclotetradecine-3-carbonitrile]
16 | 8.7 | 1.95 | 0.12 | 0.13 | CC1Cc2cc(cnc2N)-c2c(nn(C)c2C#N)CN(C)C(=O)c2ccc(F)cc21 (single isomer, unassigned) [Example 63, 7-amino-12-fluoro-2,10,16-trimethyl-15-oxo-2,9,10,15,16,17-hexahydro-8,4-(metheno)pyrazolo[3,4-d][2,8]benzodiazacyclotetradecine-3-carbonitrile]
17 | 1190 | 407 | 34.4 | 33.3 | CC1Cc2cc(cnc2N)-c2c(nn(C)c2C#N)CN(C)C(=O)c2ccc(F)cc21 (single isomer, unassigned) [Example 64, 7-amino-12-fluoro-2,10,16-trimethyl-15-oxo-2,9,10,15,16,17-hexahydro-8,4-(metheno)pyrazolo[3,4-d][2,8]benzodiazacyclotetradecine-3-carbonitrile]
18 | 313 | 9.36 | 0.88 | 9.8 | COc1nn(C)c2c1-c1cnc(N)c(c1)OC(C)c1cccnc1C(=O)N(C)C2 (single isomer, unassigned) [Example 65, 7-amino-3-methoxy-1,10,16-trimethyl-16,17-dihydro-1H-8,4-(metheno)-pyrazolo[4,3-g]pyrido[2,3-l][1,4,10]oxadiazacyclotetradecin-15(10H)-one]
19 | 2680 | 155 |  | 14 | CN1Cc2ccccc2-c2cnc(N)c(c2)OCc2cc(F)ccc2C1=O [Example 7, 8-amino-3-fluoro-17-methyl-16,17-dihydro-7,11-(metheno)dibenzo[g,l]-[1,4,10]oxadiazacyclotetradecin-18(5H)-one]
20 | 208 |  | 0.29 | 3.6 | CCc1noc2c1-c1cnc(N)c(n1)O[C@H](C)c1cc(F)ccc1C(=O)N(C)C2 [Example 47, (10R)-7-amino-3-ethyl-12-fluoro-10,16-dimethyl-16,17-dihydro-8,4-(azeno)[1,2]oxazolo[4,5-h][2,5,11]benzoxadiazacyclotetradecin-15(10H)-one]
21 |  |  | 3 | 20.5 | CC(C)Cn1nnc2c1-c1cnc(N)c(c1)O[C@H](C)c1cc(F)ccc1C(=O)N(C)C2 [Example 134, (10R)-7-amino-12-fluoro-10,16-dimethyl-3-(2-methylpropyl)-16,17-dihydro-3H-8,4-(metheno)[1,2,3]triazolo[4,5-h][2,5,11]benzoxadiazacyclotetradecin-15(10H)-one]
22 | 2280 |  | 6.1 | 72.4 | C[C@H]1Oc2cc(cnc2N)-c2c(nnn2C2CC2)CN(C)C(=O)c2ccc(F)cc21 [Example 137, (10R)-7-amino-3-cyclopropyl-12-fluoro-10,16-dimethyl-16,17-dihydro-3H-8,4-(metheno)[1,2,3]triazolo[4,5-h][2,5,11]benzoxadiazacyclotetradecin-15(10H)-one]
